# Measured values as given in the NIST ThermoML archive (doi:10.1021/je034076x).
# ± gives the expanded uncertainty stated by the source.
# Key:
# [1] = xn = mol fraction of the nth substance listed; settings: 101.3 kPa, Liquid; for viscosity: Capillary tube (Ostwald / Ubbelohde) method; for speed of sound: Pulse-echo method; for mass density: Vibrating tube method
# [2] = excess molar enthalpy (molar enthalpy of mixing); xn = mol fraction of the nth substance listed; settings: 101.3 kPa, Liquid, Flow calorimetry
structure (smiles),measurement,setting,value
"OCC(F)(F)F [2,2,2-trifluoroethanol] + C1CCOC1",viscosity,"[1]; 283.15 K, x2 = 0.1022",2.107 ± 0.016 mPa·s
same,viscosity,"[1]; 283.15 K, x2 = 0.2018",1.578 ± 0.012 mPa·s
same,viscosity,"[1]; 283.15 K, x2 = 0.3033",1.246 ± 0.01 mPa·s
same,viscosity,"[1]; 283.15 K, x2 = 0.4037",1.037 ± 0.0087 mPa·s
same,viscosity,"[1]; 283.15 K, x2 = 0.5014",0.8927 ± 0.0077 mPa·s
same,viscosity,"[1]; 283.15 K, x2 = 0.6036",0.7821 ± 0.007 mPa·s
same,viscosity,"[1]; 283.15 K, x2 = 0.7004",0.7023 ± 0.0065 mPa·s
same,viscosity,"[1]; 283.15 K, x2 = 0.8532",0.6208 ± 0.006 mPa·s
same,viscosity,"[1]; 283.15 K, x2 = 0.9033",0.5846 ± 0.0058 mPa·s
same,speed of sound,"[1]; 283.15 K, x2 = 0.1087",897.7 ± 0.6 m/s
same,speed of sound,"[1]; 283.15 K, x2 = 0.2084",932.6 ± 0.6 m/s
same,speed of sound,"[1]; 283.15 K, x2 = 0.299",966.8 ± 0.7 m/s
same,speed of sound,"[1]; 283.15 K, x2 = 0.4038",1010.1 ± 0.8 m/s
same,speed of sound,"[1]; 283.15 K, x2 = 0.4953",1052.1 ± 0.8 m/s
same,speed of sound,"[1]; 283.15 K, x2 = 0.6013",1104.4 ± 0.9 m/s
same,speed of sound,"[1]; 283.15 K, x2 = 0.7048",1161.1 ± 1 m/s
same,speed of sound,"[1]; 283.15 K, x2 = 0.7958",1213.8 ± 1 m/s
same,speed of sound,"[1]; 283.15 K, x2 = 0.9058",1283.2 ± 1.1 m/s
same,speed of sound,"[1]; 283.15 K, x2 = 0.9657",1324.1 ± 1.2 m/s
same,mass density,"[1]; 283.15 K, x2 = 0.1087",1336.89 ± 0.26 kg/m3
same,mass density,"[1]; 283.15 K, x2 = 0.2084",1277.4 ± 0.28 kg/m3
same,mass density,"[1]; 283.15 K, x2 = 0.299",1226.31 ± 0.3 kg/m3
same,mass density,"[1]; 283.15 K, x2 = 0.4038",1171.02 ± 0.33 kg/m3
same,mass density,"[1]; 283.15 K, x2 = 0.4953",1125.37 ± 0.35 kg/m3
same,mass density,"[1]; 283.15 K, x2 = 0.5967",1076.79 ± 0.38 kg/m3
same,mass density,"[1]; 283.15 K, x2 = 0.7048",1027.26 ± 0.4 kg/m3
same,mass density,"[1]; 283.15 K, x2 = 0.8048",982.37 ± 0.42 kg/m3
same,mass density,"[1]; 283.15 K, x2 = 0.8868",946.79 ± 0.44 kg/m3
same,mass density,"[1]; 283.15 K, x2 = 0.9657",913.1 ± 0.46 kg/m3
same,viscosity,"[1]; 298.15 K, x2 = 0.1022",1.467 ± 0.011 mPa·s
same,viscosity,"[1]; 298.15 K, x2 = 0.2018",1.169 ± 0.0094 mPa·s
same,viscosity,"[1]; 298.15 K, x2 = 0.3033",0.9632 ± 0.008 mPa·s
same,viscosity,"[1]; 298.15 K, x2 = 0.4037",0.8286 ± 0.0071 mPa·s
same,viscosity,"[1]; 298.15 K, x2 = 0.5014",0.7228 ± 0.0064 mPa·s
same,viscosity,"[1]; 298.15 K, x2 = 0.6036",0.6432 ± 0.0059 mPa·s
same,viscosity,"[1]; 298.15 K, x2 = 0.7004",0.5841 ± 0.0055 mPa·s
same,viscosity,"[1]; 298.15 K, x2 = 0.8532",0.5222 ± 0.0052 mPa·s
same,viscosity,"[1]; 298.15 K, x2 = 0.9033",0.4959 ± 0.005 mPa·s
same,speed of sound,"[1]; 298.15 K, x2 = 0.1106",854.6 ± 0.6 m/s
same,speed of sound,"[1]; 298.15 K, x2 = 0.2095",885 ± 0.6 m/s
same,speed of sound,"[1]; 298.15 K, x2 = 0.3019",917.9 ± 0.7 m/s
same,speed of sound,"[1]; 298.15 K, x2 = 0.4065",959.4 ± 0.7 m/s
same,speed of sound,"[1]; 298.15 K, x2 = 0.5076",1003.3 ± 0.8 m/s
same,speed of sound,"[1]; 298.15 K, x2 = 0.6172",1055.8 ± 0.9 m/s
same,speed of sound,"[1]; 298.15 K, x2 = 0.7123",1104.9 ± 1 m/s
same,speed of sound,"[1]; 298.15 K, x2 = 0.8205",1164.5 ± 1.1 m/s
same,speed of sound,"[1]; 298.15 K, x2 = 0.9042",1216.3 ± 1.1 m/s
same,mass density,"[1]; 298.15 K, x2 = 0.0362",1358.26 ± 0.24 kg/m3
same,mass density,"[1]; 298.15 K, x2 = 0.1041",1315.13 ± 0.25 kg/m3
same,mass density,"[1]; 298.15 K, x2 = 0.2053",1255.19 ± 0.27 kg/m3
same,mass density,"[1]; 298.15 K, x2 = 0.3031",1201.4 ± 0.29 kg/m3
same,mass density,"[1]; 298.15 K, x2 = 0.4018",1150.15 ± 0.32 kg/m3
same,mass density,"[1]; 298.15 K, x2 = 0.4986",1103.07 ± 0.34 kg/m3
same,mass density,"[1]; 298.15 K, x2 = 0.5989",1055.77 ± 0.37 kg/m3
same,mass density,"[1]; 298.15 K, x2 = 0.7019",1009.19 ± 0.39 kg/m3
same,mass density,"[1]; 298.15 K, x2 = 0.7978",967.32 ± 0.41 kg/m3
same,mass density,"[1]; 298.15 K, x2 = 0.899",924.33 ± 0.44 kg/m3
same,viscosity,"[1]; 313.15 K, x2 = 0.1022",1.057 ± 0.0085 mPa·s
same,viscosity,"[1]; 313.15 K, x2 = 0.2018",0.8873 ± 0.0074 mPa·s
same,viscosity,"[1]; 313.15 K, x2 = 0.3033",0.7583 ± 0.0065 mPa·s
same,viscosity,"[1]; 313.15 K, x2 = 0.4037",0.6648 ± 0.0059 mPa·s
same,viscosity,"[1]; 313.15 K, x2 = 0.5014",0.5936 ± 0.0055 mPa·s
same,viscosity,"[1]; 313.15 K, x2 = 0.6036",0.5356 ± 0.0051 mPa·s
same,viscosity,"[1]; 313.15 K, x2 = 0.7004",0.4916 ± 0.0048 mPa·s
same,viscosity,"[1]; 313.15 K, x2 = 0.8532",0.4431 ± 0.0045 mPa·s
same,viscosity,"[1]; 313.15 K, x2 = 0.9033",0.4239 ± 0.0044 mPa·s
same,speed of sound,"[1]; 313.15 K, x2 = 0.1024",808.3 ± 0.6 m/s
same,speed of sound,"[1]; 313.15 K, x2 = 0.1991",834.3 ± 0.6 m/s
same,speed of sound,"[1]; 313.15 K, x2 = 0.3032",868.4 ± 0.7 m/s
same,speed of sound,"[1]; 313.15 K, x2 = 0.3554",886.4 ± 0.7 m/s
same,speed of sound,"[1]; 313.15 K, x2 = 0.4972",942.6 ± 0.8 m/s
same,speed of sound,"[1]; 313.15 K, x2 = 0.596",985.9 ± 0.9 m/s
same,speed of sound,"[1]; 313.15 K, x2 = 0.7191",1045.5 ± 1 m/s
same,speed of sound,"[1]; 313.15 K, x2 = 0.7922",1082.8 ± 1 m/s
same,speed of sound,"[1]; 313.15 K, x2 = 0.8937",1138.7 ± 1.1 m/s
same,mass density,"[1]; 313.15 K, x2 = 0.1024",1291.64 ± 0.24 kg/m3
same,mass density,"[1]; 313.15 K, x2 = 0.1991",1234.96 ± 0.26 kg/m3
same,mass density,"[1]; 313.15 K, x2 = 0.3032",1178.51 ± 0.29 kg/m3
same,mass density,"[1]; 313.15 K, x2 = 0.3554",1151.61 ± 0.3 kg/m3
same,mass density,"[1]; 313.15 K, x2 = 0.4972",1082.56 ± 0.34 kg/m3
same,mass density,"[1]; 313.15 K, x2 = 0.596",1037.96 ± 0.36 kg/m3
same,mass density,"[1]; 313.15 K, x2 = 0.7191",983.05 ± 0.39 kg/m3
same,mass density,"[1]; 313.15 K, x2 = 0.7922",952.13 ± 0.41 kg/m3
same,mass density,"[1]; 313.15 K, x2 = 0.8937",909.37 ± 0.43 kg/m3
same,excess molar enthalpy,"[2]; 283.15 K, x2 = 0.053",-0.0915 ± 0.0012 kcal/mol
same,excess molar enthalpy,"[2]; 283.15 K, x2 = 0.107",-0.173 ± 0.00215 kcal/mol
same,excess molar enthalpy,"[2]; 283.15 K, x2 = 0.212",-0.295 ± 0.00382 kcal/mol
same,excess molar enthalpy,"[2]; 283.15 K, x2 = 0.316",-0.381 ± 0.00478 kcal/mol
same,excess molar enthalpy,"[2]; 283.15 K, x2 = 0.417",-0.415 ± 0.00526 kcal/mol
same,excess molar enthalpy,"[2]; 283.15 K, x2 = 0.517",-0.413 ± 0.00526 kcal/mol
same,excess molar enthalpy,"[2]; 283.15 K, x2 = 0.618",-0.375 ± 0.00478 kcal/mol
same,excess molar enthalpy,"[2]; 283.15 K, x2 = 0.717",-0.304 ± 0.00382 kcal/mol
same,excess molar enthalpy,"[2]; 283.15 K, x2 = 0.81",-0.216 ± 0.00287 kcal/mol
same,excess molar enthalpy,"[2]; 283.15 K, x2 = 0.908",-0.107 ± 0.00143 kcal/mol
same,excess molar enthalpy,"[2]; 283.15 K, x2 = 0.954",-0.0509 ± 0.000717 kcal/mol
same,excess molar enthalpy,"[2]; 298.15 K, x2 = 0.053",-0.113 ± 0.00143 kcal/mol
same,excess molar enthalpy,"[2]; 298.15 K, x2 = 0.107",-0.224 ± 0.00287 kcal/mol
same,excess molar enthalpy,"[2]; 298.15 K, x2 = 0.212",-0.369 ± 0.00454 kcal/mol
same,excess molar enthalpy,"[2]; 298.15 K, x2 = 0.316",-0.45 ± 0.0055 kcal/mol
same,excess molar enthalpy,"[2]; 298.15 K, x2 = 0.417",-0.479 ± 0.00598 kcal/mol
same,excess molar enthalpy,"[2]; 298.15 K, x2 = 0.517",-0.467 ± 0.00574 kcal/mol
same,excess molar enthalpy,"[2]; 298.15 K, x2 = 0.618",-0.418 ± 0.00526 kcal/mol
same,excess molar enthalpy,"[2]; 298.15 K, x2 = 0.717",-0.341 ± 0.0043 kcal/mol
same,excess molar enthalpy,"[2]; 298.15 K, x2 = 0.81",-0.237 ± 0.00311 kcal/mol
same,excess molar enthalpy,"[2]; 298.15 K, x2 = 0.908",-0.117 ± 0.00143 kcal/mol
same,excess molar enthalpy,"[2]; 298.15 K, x2 = 0.954",-0.0559 ± 0.000717 kcal/mol
same,excess molar enthalpy,"[2]; 313.15 K, x2 = 0.053",-0.113 ± 0.00143 kcal/mol
same,excess molar enthalpy,"[2]; 313.15 K, x2 = 0.107",-0.222 ± 0.00287 kcal/mol
same,excess molar enthalpy,"[2]; 313.15 K, x2 = 0.212",-0.375 ± 0.00478 kcal/mol
same,excess molar enthalpy,"[2]; 313.15 K, x2 = 0.316",-0.474 ± 0.00598 kcal/mol
same,excess molar enthalpy,"[2]; 313.15 K, x2 = 0.417",-0.512 ± 0.00645 kcal/mol
same,excess molar enthalpy,"[2]; 313.15 K, x2 = 0.517",-0.5 ± 0.00621 kcal/mol
same,excess molar enthalpy,"[2]; 313.15 K, x2 = 0.618",-0.447 ± 0.0055 kcal/mol
same,excess molar enthalpy,"[2]; 313.15 K, x2 = 0.717",-0.361 ± 0.00454 kcal/mol
same,excess molar enthalpy,"[2]; 313.15 K, x2 = 0.81",-0.254 ± 0.00311 kcal/mol
same,excess molar enthalpy,"[2]; 313.15 K, x2 = 0.908",-0.125 ± 0.00167 kcal/mol
same,excess molar enthalpy,"[2]; 313.15 K, x2 = 0.954",-0.0614 ± 0.000956 kcal/mol
